Assay results reported in US6699834B1, “Method for treating cancer” (University of Maryland Biotechnology Institute, priority 1997, dated 2004).

Legend:
HIV-1 = conditions: for HIV in vitro Inhibition: inhibition of HIV-1 replication in vitro (HIV-1 strains and HIV-1 primary isolates)
Source text: To prepare HIV infected cells for the in vitro assay of hCG preparations and β-hCG peptides and derivatives, primary PBMCs, macrophages, and CD4^+ T cells isolated from peripheral blood and the H9 human T cell line, were acutely or chronically infected with 8 different HIV-1 strains: 4 cell line adapted viruses, namely the macrophage tropic Ba-L strain (Gartner et al., 1986, Science 233:215-219) and the CD4^+ T cell tropic MN, RF, and IIIB strains (10^5 TCID50/ml) (Popovic et al., 1984, Science […]; Gallo et al.; 1984, Science 224:500-503); 2 isolates, Ju1083 and G3, from Nigerian AIDS patients passed once in a CD4^+ T cell line (Sub-T1); and 2 primary (“clinical”) isolates from AIDS patients from Trinidad which were never passed in any cell line and were used at a titer of 7.5×10^4TCID50/ml. In all experiments; HIV1 (10^5 TCID50/ml) was added to the cells(10^6 cells/ml) for a 2 hour incubation after which the virus infected cells were washed with 10 ml phosphate buffered saline (PBS) three times to eliminate extra cellular virus. The test inhibitor, i.e. the hCG or β-hCG peptide preparation was then added and the cells were incubated with the test inhibiter for 9 to 10 days with serial sampling. Cultures were assayed for p24 antigen on days 3 to 10.
Peptides of the α- and β-subunits (0.05 to 50 nmoles/ml), native α chain preparation, and various crude preparations of the native hCG heterodimer (0.01 to 1,000 IU) and the native β-hCG subunit (100 to 1,000 μg) were tested for effects on HIV-1 replication in acutely infected cells-by measuring change in viral antigen levels in response to the above noted preparations (FIGS. 4A-D and Table 3).
The fractions were then tested for anti-HIV, anti-KS and pro-hematopoietic activities in vitro. To assay for inhibition of HIV-1 replication in vitro, the HIV-1 […] viral strain was used to infect PBMCs and PM-1 cells (derived from the HUT-78 T-cell lymphoma cell line) at 10^3 TCID50/ml as described in detail herein.

KS Y-1 and KS-SLK cells = assay: Kaposi's Sarcoma clonogenic assay in cultured cells; format: cell-based, human; conditions: inhibition of Kaposi's Sarcoma cell growth in vitro in cultured cells
Experimental: Briefly, the KS Y-1 cells were obtained from mononuclear cells isolated from pleural effusion of an AIDS patient with KS in the lungs. After the depletion of T lymphocytes, monocytes/macrophages and fibroblasts using monoclonal antibodies against CD2, CD3, CD4, CD8, CD10 and CD14 membrane antigens and baby rabbit complement, the cells were cultured in the absence of exogenous growth factors to select for transformed cells. […] Clonogenic assays were performed by seeding the KS Y-1 or KS-SLK cells in methylcellulose (0.8%, v/v), incubating the cells for 10 days in the presence or absence of the hCC, β-hCG or β-hCG peptide preparations and then counting the number of well-formed colonies of triplicate wells formed after seeding with 5×10^4 cells.
To assay for activity against Kaposi's sarcoma cell growth in vitro, the clonogenic assay described herein was used with the KS Y-1 and KS-SLK cultured Kaposi's Sarcoma cell lines,.

[1] = tested on: hematopoietic progenitor cells; assay: Hematopoietic progenitor clonogenic assays (CFU-GEMM, BFU-e, CFU-GM); format: cell-based, human; conditions: relative increase of hematopoietic colony cell number; hCG preparations 200 IU/ml, subunits and peptides 100 μg/ml
Experimental: The effect of hCG preparations and peptides was assayed on hematopoietic progenitor cells in vitro: Hematopoietic progenitor cells (2×10^5 cell/ml) were isolated from normal bone marrow and cord blood and seeded in methylcellulose. […] The hCG preparations were administered at 200 IU/ml and the β- and α-subunits and peptides were administered at 100 μg/ml. The native commercial preparation of hCG (APL™, Wyeth Ayerst) was pre-tested for anti-HIV and anti-KS activities. Aggregates containing more than 50 cells after 10 days of culture were counted as colonies.

| Compound | HIV in vitro Inhibition (HIV-1) | KS in vitro (KS Y-1 and KS-SLK cells) | Pro-hematopoiesis in vitro Enhancement [1] | inhibition of HIV-1 infection/replication in vitro (in words) (HIV-1) |
| --- | --- | --- | --- | --- |
| 14. 1-20: β-hCG amino acids 1-20 (SKEPLRPRCRPINATLAVEK; UniProt P0DN86 21-40, looked up, fragment) | − (“−” represents less than 10% effect) | − (“−” represents less than 10% effect) | – | – |
| 16. 31-50: β-hCG amino acids 31-50 (TTICAGYCPTMTRVLQGVLP; UniProt P0DN86 51-70, looked up, fragment) | − (“−” represents less than 10% effect) | − (“−” represents less than 10% effect) | − (“−” represents less than 10% effect) | – |
| 17. 46-65: β-hCG amino acids 46-65 (SEQ ID NO:34) (QGVLPALPQVVCNYRDVRFE) | + (“+” represents greater than 15% effect) | + (“+” represents greater than 15% effect) | – | inhibited HIV-1 replication |
| 18. 91-112: β-hCG amino acids 91-112 (ALCRRSTTDCGGPKDHPLTCDD; UniProt P0DN86 111-132, looked up, fragment) | – | − (“−” represents less than 10% effect) | − (“−” represents less than 10% effect) | – |
| 19. 93-100: β-hCG amino acids 93-100 (CRRSTTDC; UniProt P0DN86 113-120, looked up, fragment) | − (“−” represents less than 10% effect) | − (“−” represents less than 10% effect) | – | – |
| 20. 110-145: β-hCG amino acids 110-145 (CDDPRFQDSSSSKAPPPSLPSPSRLPGPSDTPILPQ; UniProt P0DN86 130-165, looked up, fragment) | – | − (“−” represents less than 10% effect) | − (“−” represents less than 10% effect) | – |
| 21. 74-95: β-hCG amino acids 74-95 (RGVNPVVSYAVALSCQCALCRR; UniProt P0DN86 94-115, looked up, fragment) | − (“−” represents less than 10% effect) | − (“−” represents less than 10% effect) | − (“−” represents less than 10% effect) | – |
| 22. 7-40: β-hCG amino acids 7-40 (SEQ ID NO:33) (PRCRPINATLAVEKEGCPVCITVNTTICAGYCPT) | + (“+” represents greater than 15% effect) | + (“+” represents greater than 15% effect) | − (“−” represents less than 10% effect) | inhibited HIV-1 replication |
| 23. 57-93: β-hCG amino acids 57-93 (CNYRDVRFESIRLPGCPRGVNPVVSYAVALSCQCALC; UniProt P0DN86 77-113, looked up, fragment) | − (“−” represents less than 10% effect) | − (“−” represents less than 10% effect) | − (“−” represents less than 10% effect) | – |
| 24. 34-39: β-hCG amino acids 34-39 (CAGYCP; UniProt P0DN86 54-59, looked up, fragment) | − (“−” represents less than 10% effect) | − (“−” represents less than 10% effect) | – | – |
| 25. 123-145: β-hCG amino acids 123-145 | − (“−” represents less than 10% effect) | − (“−” represents less than 10% effect) | – | – |
| 26. 134-144: β-hCG amino acids 134-144 | − (“−” represents less than 10% effect) | − (“−” represents less than 10% effect) | − (“−” represents less than 10% effect) | – |
| 27. 100-110: β-hCG amino acids 100-110 (CGGPKDHPLTC; UniProt P0DN86 120-130, looked up, fragment) | − (“−” represents less than 10% effect) | − (“−” represents less than 10% effect) | – | – |
| 28. 113-132: β-hCG amino acids 113-132 (PRFQDSSSSKAPPPSLPSPS; UniProt P0DN86 133-152, looked up, fragment) | – | − (“−” represents less than 10% effect) | − (“−” represents less than 10% effect) | – |
| 29. 128-145: β-hCG amino acids 128-145 (LPSPSRLPGPSDTPILPQ; UniProt P0DN86 148-165, looked up, fragment) | − (“−” represents less than 10% effect) | − (“−” represents less than 10% effect) | −V (“−” represents less than 10% effect) | – |
| 31. 51-59: β-hCG amino acids 51-59 (ALPQVVCNY; UniProt P0DN86 71-79, looked up, fragment) | − (“−” represents less than 10% effect) | − (“−” represents less than 10% effect) | − (“−” represents less than 10% effect) | – |
| 34. 88-92: α-hCG amino acids 88-92 (YYHKS; UniProt P01215 112-116, looked up, fragment) | − (“−” represents less than 10% effect) | − (“−” represents less than 10% effect) | – | little or no effect |
| 36. 16-30: α-hCG amino acids 16-30 (PFFSQPGAPILQCMG; UniProt P01215 40-54, looked up, fragment) | − (“−” represents less than 10% effect) | − (“−” represents less than 10% effect) | − (“−” represents less than 10% effect) | – |
| 37. 26-45: α-hCG amino acids 26-45 (LQCMGCCFSRAYPTPLRSKK; UniProt P01215 50-69, looked up, fragment) | − (“−” represents less than 10% effect) | − (“−” represents less than 10% effect) | − (“−” represents less than 10% effect) | – |
| 38. 41-61: α-hCG amino acids 41-61 (LRSKKTMLVQKNVTSESTCCV; UniProt P01215 65-85, looked up, fragment) | − (“−” represents less than 10% effect) | − (“−” represents less than 10% effect) | – | – |
| 39. 57-76: α-hCG amino acids 57-76 (STCCVAKSYNRVTVMGGFKV; UniProt P01215 81-100, looked up, fragment) | − (“−” represents less than 10% effect) | − (“−” represents less than 10% effect) | – | – |
| 40. 72-92: α-hCG amino acids 72-92 (GGFKVENHTACHCSTCYYHKS; UniProt P01215 96-116, looked up, fragment) | − (“−” represents less than 10% effect) | − (“−” represents less than 10% effect) | − (“−” represents less than 10% effect) | – |
| Oc1ccccc1 [phenol, reference compound] | – | – | – | no effect on HIV-1 replication |
